Here are results for one molecule from ChEMBL document CHEMBL4350985, “1,3-Dioxane as a scaffold for potent and selective 5-HT1AR agonist with in-vivo anxiolytic, anti-depressant and anti-nociceptive activity” (Eur J Med Chem, 2019).

Data set [1] concerns SH-SY5Y. Put plainly: Neuroprotective activity against oligomycin A-induced cell death in human SH-SY5Y cells at 0.1 uM incubated for 24 hrs by MTT assay. The class given is functional.
The nature of data set [2]: Half life in Sprague-Dawley rat brain at 10 mg/kg, po measured after 45 to 480 mins by LC/MS-MS analysis. In kind it is ADME, organism-based.
Data set [3] concerns Rattus norvegicus. Put plainly: Anxiolytic activity in at Sprague-Dawley rat assessed as increase in number of entries into central area of open field at 10 mg/kg, po by open field test. In kind it is functional, organism-based.
In data set [4] the test system is Mus musculus. Put plainly: Antinociceptive activity in formalin-induced nociception pain Swiss […] mouse model assessed as perception of II phase of noxious stimulus at 10 mg/kg, ip co-administered with 3 mg/kg, ip 5-HT1AR antagonist WAY-100635 by formalin test. The class given is functional, organism-based.
The subject of data set [5] is Rattus norvegicus. The data set is described as follows: Antidepressant activity in Sprague-Dawley rat assessed as increase in time spent in swimming at 10 and 20 mg/kg, po by forced swim test. In kind it is functional, organism-based.
Data set [6] can be described thus: AUC (0 to infinity) in Sprague-Dawley rat brain at 10 mg/kg, po measured upto 480 mins by LC/MS-MS analysis. The class given is ADME, organism-based. Further details: dose 10 mg/kg, time infinity, route oral. The settings on record: in vivo, 8 h.
A short description of data set [7]: Tmax in Sprague-Dawley rat brain at 10 mg/kg, po measured upto 480 mins by LC/MS-MS analysis. In kind it is ADME, organism-based.
Data set [8] is described as follows: Apparent permeability from basolateral to apical side in dog MDCK2-MDR1 cells incubated for 120 mins by UV-visible spectrophotometry. The class given is ADME, cell-based, Canis lupus familiaris. The conditions noted are these: MDCK-MDR1.
Data set [9] in a line: Half life in Sprague-Dawley rat plasma at 10 mg/kg, po measured upto 480 mins by LC/MS-MS analysis. In kind it is ADME, organism-based.
The test system of data set [10] is Rattus norvegicus. The data set is described as follows: Anxiolytic activity at Sprague-Dawley rat assessed as decrease in time spent in closed arm at 5 to 20 mg/kg, po by EPM test. The class given is functional, organism-based.

Active and inactive are the calls of the source. The rule behind the calls is not given here.

The term half-life denotes how long it takes for the measured level to halve. A low value points to rapid decline. Usually Tmax stands for the time at which the peak concentration occurs. One may read the Papp B→A as how fast a substance crosses the layer from the basolateral side. In turn, `COc1ccccc1OCCNCC1COC(c2ccccc2)(c2ccccc2)OC1.O=C(O)C(=O)O` displayed an Activity in [1] of 69%. Besides, the half-life is 2.37 h in data set [2] and 1.71 h in data set [9]. Moreover, the result in data set [3] and in data set [5] was Active. In addition, the inhibition result in [4] was “inactive”. In data set [6], this molecule showed an AUC of 7173.4 nmol·min/g. Also, the time of peak concentration (Tmax) in [7] is 1 h. In data set [8], the Papp B→A at 2 h amounted to 12.6 ×10⁻⁶ cm/s. In data set [10], the inhibition result was “Active”.
